# Data taken from patent publication US20260285850A1, “SUBSTITUTED OXAZOLIDINONES AND IMIDAZOLINONES AS HERBICIDES” (FMC CORPORATION, priority 2023, published 2026).
# Legend:
# Format in all cases: in vivo
# [1] = test system: galium (catchweed bedstraw, Galium aparine); assay: Test A postemergence application, visual injury rating 0-100
# Method in brief: (§1)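 Preemergence directed soil spray or postemergence spray (2-10 cm, 1-2 leaf); loam/sand mix; compound in non-phytotoxic solvent + surfactant. Greenhouse, 10 d. Visual injury vs untreated, 0 = none, 100 = complete control.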
# [2] = test system: green foxtail (Setaria viridis); assay: as above
# Method in brief: as §1
# [3] = test system: oat, wild (wild oat, Avena fatua); assay: as above
# Method in brief: as §1
# [4] = test system: horseweed (Erigeron canadensis); assay: as above
# Method in brief: as §1
# [5] = test system: wheat (Triticum aestivum); assay: as above
# Method in brief: as §1
# [6] = test system: corn (Zea mays); assay: as above
# Method in brief: as §1
# [7] = test system: ragweed (common ragweed, Ambrosia artemisiifolia); assay: as above
# Method in brief: as §1
# [8] = test system: soybean (Glycine max); assay: as above
# Method in brief: as §1
# [9] = test system: palmer (palmer amaranth, palmer pigweed, Amaranthus palmeri); assay: as above
# Method in brief: as §1
# [10] = test system: ryegrass, Italian (italian ryegrass, Lolium multiflorum); assay: as above
# Method in brief: as §1
# [11] = test system: kochia (Bassia scoparia); assay: as above
# Method in brief: as §1
# [12] = test system: barnyardgrass (Echinochloa crus-galli); assay: as above
# Method in brief: as §1
# [13] = test system: blackgrass (Alopecurus myosuroides); assay: as above
# Method in brief: as §1
# [14] = test system: green foxtail (Setaria viridis); assay: Test A preemergence soil spray, visual injury rating 0-100; conditions: 10 days
# Method in brief: as §1
# [15] = test system: oat, wild (wild oat, Avena fatua); assay: as above; conditions: 10 days
# Method in brief: as §1
# [16] = test system: wheat (Triticum aestivum); assay: as above; conditions: 10 days
# Method in brief: as §1
# [17] = test system: corn (Zea mays); assay: as above; conditions: 10 days
# Method in brief: as §1
# [18] = test system: ragweed (common ragweed, Ambrosia artemisiifolia); assay: as above; conditions: 10 days
# Method in brief: as §1
# [19] = test system: soybean (Glycine max); assay: as above; conditions: 10 days
# Method in brief: as §1
# [20] = test system: palmer (palmer amaranth, palmer pigweed, Amaranthus palmeri); assay: as above; conditions: 10 days
# Method in brief: as §1
# [21] = test system: ryegrass, Italian (italian ryegrass, Lolium multiflorum); assay: as above; conditions: 10 days
# Method in brief: as §1
# [22] = test system: kochia (Bassia scoparia); assay: as above; conditions: 10 days
# Method in brief: as §1
# [23] = test system: barnyardgrass (Echinochloa crus-galli); assay: as above; conditions: 10 days
# Method in brief: as §1
# [24] = test system: blackgrass (Alopecurus myosuroides); assay: as above; conditions: 10 days
# Method in brief: as §1
# [25] = test system: barnyardgrass (Echinochloa crusgalli); assay: Test B flooded paddy test, visual plant response rating 0-100; conditions: 250 g ai/ha, Flood, applied to paddy water, evaluated after 13 days
# Method in brief: (§2)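 Paddy-water application: test compounds went directly into water flooded 3 cm above the soil surface, with plants at 2 leaves. After a 13-day greenhouse period, responses were judged by eye relative to controls; a dash marks an untested entry.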
# [26] = test system: ducksalad (Heteranthera limosa); assay: as above; conditions: 250 g ai/ha, Flood, applied to paddy water, evaluated after 13 days
# Method in brief: as §2
# [27] = test system: sedge, umbrella (small-flower umbrella sedge, Cyperus difformis); assay: as above; conditions: 250 g ai/ha, Flood, applied to paddy water, evaluated after 13 days
# Method in brief: as §2
# [28] = test system: rice (Oryza sativa); assay: as above; conditions: 250 g ai/ha, Flood, applied to paddy water, evaluated after 13 days
# Method in brief: as §2
# [29] = 62 g ai/ha, postemergence, 10 days, 0 = no effect, 100 = complete control
# [30] = Postemergence, 16 g ai/ha, greenhouse 10 days, 0 no effect, 100 complete control
# [31] = 62 g ai/ha, 0 = no effect, 100 = complete control
smiles,measurement,setting,value
COC(=O)C1CC(NC(=O)C2(C)CN(c3cc(F)cc(F)c3)C(=O)O2)C1 (stereo not shown) [Compound 117],Galium plant response rating (0-100),[1]; [29],60
same,Galium plant response rating (0 to 100 scale),[1]; [30],50
same,"Foxtail, Green plant response rating (0-100)",[2]; [29],90
same,"Foxtail, Green plant response rating (0 to 100 scale)",[2]; [30],30
same,"Oat, Wild plant response rating (0-100)",[3]; [29],80
same,"Oat, Wild plant response rating (0 to 100 scale)",[3]; [30],10
same,Horseweed plant response rating (0-100),[4]; [29],0
same,Horseweed plant response rating (0 to 100 scale),[4]; [30],0
same,Wheat plant response rating (0-100),[5]; [29],90
same,Wheat plant response rating (0 to 100 scale),[5]; [30],50
same,Corn plant response rating (0-100),[6]; [29],100
same,Corn plant response rating (0 to 100 scale),[6]; [30],0
same,Ragweed plant response rating (0-100),[7]; [29],40
same,Ragweed plant response rating (0 to 100 scale),[7]; [30],0
same,Soybean plant response rating (0-100),[8]; [29],60
same,Soybean plant response rating (0 to 100 scale),[8]; [30],40
same,"Pigweed, Palmer plant response rating (0-100)",[9]; [29],10
same,"Pigweed, Palmer plant response rating (0 to 100 scale)",[9]; [30],0
same,"Ryegrass, Italian plant response rating (0-100)",[10]; [29],80
same,"Ryegrass, Italian plant response rating (0 to 100 scale)",[10]; [30],60
same,Kochia plant response rating (0-100),[11]; [29],0
same,Kochia plant response rating (0 to 100 scale),[11]; [30],0
same,Barnyardgrass plant response rating (0-100),[12]; [29],70
same,Barnyardgrass plant response rating (0 to 100 scale),[12]; [30],0
same,Blackgrass plant response rating (0-100),[13]; [29],90
same,Blackgrass plant response rating (0 to 100 scale),[13]; [30],70
same,"Foxtail, Green plant response rating","[14]; 16 g ai/ha, 0 to 100 scale",0
same,"Foxtail, Green plant response rating (0-100)",[14]; [31],80
same,"Oat, Wild plant response rating","[15]; 16 g ai/ha, 0 to 100 scale",40
same,"Oat, Wild plant response rating (0-100)",[15]; [31],90
same,Wheat plant response rating,"[16]; 16 g ai/ha, 0 to 100 scale",0
same,Wheat plant response rating (0-100),[16]; [31],20
same,Corn plant response rating,"[17]; 16 g ai/ha, 0 to 100 scale",0
same,Corn plant response rating (0-100),[17]; [31],0
same,Ragweed plant response rating,"[18]; 16 g ai/ha, 0 to 100 scale",0
same,Ragweed plant response rating (0-100),[18]; [31],0
same,Soybean plant response rating,"[19]; 16 g ai/ha, 0 to 100 scale",0
same,Soybean plant response rating (0-100),[19]; [31],0
same,"Pigweed, Palmer plant response rating","[20]; 16 g ai/ha, 0 to 100 scale",0
same,"Pigweed, Palmer plant response rating (0-100)",[20]; [31],10
same,"Ryegrass, Italian plant response rating","[21]; 16 g ai/ha, 0 to 100 scale",0
same,"Ryegrass, Italian plant response rating (0-100)",[21]; [31],70
same,Kochia plant response rating,"[22]; 16 g ai/ha, 0 to 100 scale",0
same,Kochia plant response rating (0-100),[22]; [31],0
same,Barnyardgrass plant response rating,"[23]; 16 g ai/ha, 0 to 100 scale",0
same,Barnyardgrass plant response rating (0-100),[23]; [31],10
same,Blackgrass plant response rating,"[24]; 16 g ai/ha, 0 to 100 scale",30
same,Blackgrass plant response rating (0-100),[24]; [31],60
same,"Plant response rating, Barnyardgrass (0 to 100 scale, 0 is no effect and 100 is complete control)",[25],0
same,"Plant response rating, Ducksalad (0 to 100 scale, 0 is no effect and 100 is complete control)",[26],0
same,"Plant response rating, Sedge, Umbrella (0 to 100 scale, 0 is no effect and 100 is complete control)",[27],0
same,"Plant response rating, Rice (0 to 100 scale, 0 is no effect and 100 is complete control)",[28],0
